Consider 25 compounds from ChEMBL document CHEMBL5032521, “Design, synthesis and anti-tumor evaluation of 1,2,4-triazol-3-one derivatives and pyridazinone derivatives as novel CXCR2 antagonists” (Eur J Med Chem, 2021).

pIC50: −log10 of the molar value. The source made the active and inactive calls. No cut-off for these calls is given here.

The term pIC50 denotes −log10 of the IC50, conventionally taken in molar units. For orientation: inhibition means the drop in the measured response relative to a control, in per cent.

The subject of one test is Caco-2. Briefly: Cytotoxicity against human Caco2 cells. In kind it is functional, cell-based.
Test [1] addresses T1, C-X-C chemokine receptor type 2 (Homo sapiens) (UniProt P25025).
T1 sequence (whole entry): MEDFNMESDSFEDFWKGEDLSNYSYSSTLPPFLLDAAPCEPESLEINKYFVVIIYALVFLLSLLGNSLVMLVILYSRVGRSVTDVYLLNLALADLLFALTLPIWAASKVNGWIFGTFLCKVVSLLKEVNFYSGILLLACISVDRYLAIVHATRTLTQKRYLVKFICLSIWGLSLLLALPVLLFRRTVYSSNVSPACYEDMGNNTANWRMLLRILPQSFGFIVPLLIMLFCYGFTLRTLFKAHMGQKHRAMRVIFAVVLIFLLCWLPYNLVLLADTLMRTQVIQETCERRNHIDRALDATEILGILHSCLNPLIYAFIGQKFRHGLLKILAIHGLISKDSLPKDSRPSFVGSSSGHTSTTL
Briefly: Antagonist activity at CXCR2 (unknown origin) at 10 uM by calcium flux assay relative to control. The format is functional. For orientation: A change in cytosolic calcium serves as a functional read-out for many receptors and channels.

The test system of test [2] is MDA-MB-231. Description: Antimigratory activity against human MDA-MB-231 cells assessed as reduction in cell migration at 2 uM measured after 24 hrs by wound healing assay relative to control. Also noted: scale not given: the % may be the effect or the level left. In kind it is functional.
The subject of test [3] is MDA-MB-231. Description: Antimigratory activity against human MDA-MB-231 cells assessed as reduction in cell migration at 2 uM measured after 24 hrs by crystal violet staining based transwell assay relative to control. The format is functional. Details: scale not given: the % may be the effect or the level left.
For test [4], the system named is HUVEC. Description: Anti-angiogenesis activity in HUVEC cells assessed as reduction in blood vessel area at 2 uM measured after 12 hrs by inverted microscopic analysis relative to control. The format is functional, Homo sapiens. Details: scale not given: the % may be the effect or the level left.
For test [5], the system named is MDA-MB-231. Briefly: Synergistic antiproliferative activity against human MDA-MB-231 cells assessed as inhibition of cell growth at 10 uM incubated for 72 hrs in presence of Sorafenib by MTT assay. In kind it is functional, cell-based. The settings on record: MDA-MB-231, 72 h. A general note: Tetrazolium assays rely on reduction of a dye to a coloured formazan, in cell work by metabolically active cells.

Test [6] deals with MDA-MB-231. Description: Synergistic antiproliferative activity against human MDA-MB-231 cells assessed as inhibition of cell growth at 25 uM incubated for 72 hrs in presence of Sorafenib by MTT assay. In kind it is functional, cell-based. To be noted: MDA-MB-231, 72 h.
In test [7] the test system is MDA-MB-231. Description: Antiproliferative activity against human MDA-MB-231 cells assessed as reduction in cell viability measured after 72 hrs by MTT assay. To be noted: MDA-MB-231, 72 h. The format is functional, cell-based.
Test [8] concerns MDA-MB-231. Description: Inhibition of PI3K signalling in human MDA-MB-231 cells assessed as decrease in PI3K phosphorylation at 5 to 10 uM measured after 24 hrs by Western blot assay. In kind it is cell-based. To be noted: dose 5-10 µM. A general note: Immunoblotting shows a protein as a band on a membrane.
For test [9], the system named is MDA-MB-231. Briefly: Inhibition of PI3K signalling in human MDA-MB-231 cells assessed as decrease in AKT phosphorylation at 5 to 10 uM measured after 24 hrs by Western blot assay. The format is cell-based. To be noted: dose 5-10 µM.
Test [10] has as its system MDA-MB-231. Briefly: Inhibition of epithelial-mesenchymal transition in human MDA-MB-231 cells assessed as upregulation of E-cadherin expression at 10 uM measured after 24 hrs by Western blot assay. The format is functional, cell-based.
The test system of test [11] is MDA-MB-231. Description: Inhibition of epithelial-mesenchymal transition in human MDA-MB-231 cells assessed as downregulation of fibronectin expression at 10 uM measured after 24 hrs by Western blot assay. The format is functional, cell-based.
The test system of test [12] is MDA-MB-231. Briefly: Inhibition of epithelial-mesenchymal transition in human MDA-MB-231 cells assessed as downregulation of vimentin expression at 10 uM measured after 24 hrs by Western blot assay. In kind it is functional, cell-based.
For test [13], the system named is MDA-MB-231. Briefly: Inhibition of epithelial-mesenchymal transition in human MDA-MB-231 cells assessed as downregulation of beta-catenin expression at 10 uM measured after 24 hrs by Western blot assay. In kind it is functional, cell-based.
Test [14] deals with HUVEC. Briefly: Down-regulation of VEGF expression in HUVEC cells assessed as 10 uM measured after 24 hrs by Western blot assay. In kind it is functional, cell-based. The settings on record: Homo sapiens.
In test [15] the test system is MDA-MB-231. Briefly: Induction of ROS production in human MDA-MB-231 cells assessed as increase in mean fluorescence intensity at 10 uM measured after 24 hrs by DCFH-DA staining based inverted microscopic analysis. In kind it is functional, cell-based.

Take `CC[C@@H](Nc1c(Nc2cccc(C(=O)N(C)C)c2O)c(=O)c1=O)c1ccc(C)o1` [NAVARIXIN ANHYDROUS]: the negative-log IC50 (pIC50) in the test with Caco-2 is 4.73.

Take `CN(C)C(=O)c1cccc(NC(=O)c2nn(-c3ccc(C(C)(C)C)cc3)c(=O)n2C)c1O`: the inhibition in test [1] (filed as antagonist) came to 40.9%.

As to `COc1ccc(-n2nc(C(=O)Nc3cccc(C(=O)N(C)C)c3O)c(C)cc2=O)cc1`, the inhibition in [1] is 34.6%.

Consider `Cc1cc(=O)n(-c2ccc(C(F)(F)F)cc2)nc1C(=O)Nc1cccc(C(=O)N(C)C)c1O`, for which the inhibition in test [1] (filed as antagonist) turned out to be 69.4%. In addition, the Activity stood at 52% with MDA-MB-231 [2], 49.7% in the test on MDA-MB-231 [3] and 59.2% in the test with HUVEC [4]. Also, the results for the pIC50 with MDA-MB-231 [5], with MDA-MB-231 [6] and in the test on MDA-MB-231 [7] were 5.23, 5.53 and less than 4.60, respectively. The inhibition entry in the test with MDA-MB-231 [8], with MDA-MB-231 [9], in the test with MDA-MB-231 [10], in the test with MDA-MB-231 [11], in the test on MDA-MB-231 [12] and with MDA-MB-231 [13] was “Active” in each case. For the same compound, the outcome with HUVEC [14] and in the test with MDA-MB-231 [15] was Active.

In the case of `Cc1cc(=O)n(-c2ccc(Cl)cc2Cl)nc1C(=O)Nc1cccc(C(=O)N(C)C)c1O`, the inhibition in test [1] was -8.2%.

With `Cc1ccccc1-n1nc(C(=O)Nc2cccc(C(=O)N(C)C)c2O)c(C)cc1=O`, in test [1], the inhibition worked out at 6.1%.

As for `CN(C)C(=O)c1cccc(NC(=O)c2nn(-c3ccc(Cl)cc3)c(=O)n2C)c1O`, the inhibition in test [1] is 27.2%.

Consider `Cc1cc(=O)n(-c2ccc(C(C)(C)C)cc2)nc1C(=O)Nc1cccc(C(=O)N(C)C)c1O`, for which, in test [1], the inhibition is 20.4%.

With `Cc1cc(=O)n(-c2ccccc2)nc1C(=O)Nc1cccc(C(=O)N(C)C)c1O`, in [1], the inhibition came out at 3.2%.

With `Cc1cc(=O)n(-c2ccc(F)cc2)nc1C(=O)Nc1cccc(C(=O)N(C)C)c1O`, the inhibition in [1] was -0.8%.

With `CN(C)C(=O)c1cccc(NC(=O)c2nn(-c3ccc(Cl)c(Cl)c3)c(=O)n2C)c1O`, the inhibition in test [1] came out at 32.3%.

With `CN(C)C(=O)c1cccc(NC(=O)c2nn(-c3ccccc3)c(=O)n2C)c1O`, the inhibition in test [1] is 18.6%.

For `C#Cc1ccc(-n2nc(C(=O)Nc3cccc(C(=O)N(C)C)c3O)n(C)c2=O)cc1`, the inhibition in test [1] (filed as antagonist) turned out to be 49.2%.

`CN(C)C(=O)c1cccc(NC(=O)c2nn(-c3ccc(F)cc3)c(=O)n2C)c1O`: the inhibition in test [1] was determined as 12.7%.

In the case of `CN(C)C(=O)c1cccc(NC(=O)c2nn(-c3ccc(Cl)cc3Cl)c(=O)n2C)c1O`, the inhibition in [1] was found to be 26.6%.

As to `C#Cc1ccc(-n2nc(C(=O)Nc3cccc(C(=O)N(C)C)c3O)c(C)cc2=O)cc1`, in test [1], the inhibition was determined as 1.5%.

`CN(C)C(=O)c1cccc(NC(=O)c2nn(-c3ccc(C(F)(F)F)cc3)c(=O)n2C)c1O`: the inhibition in test [1] is 21.6%.

`Cc1ccc(-n2nc(C(=O)Nc3cccc(C(=O)N(C)C)c3O)c(C)cc2=O)cc1`: the inhibition in test [1] is 26.9%.

`Cc1cccc(-n2nc(C(=O)Nc3cccc(C(=O)N(C)C)c3O)n(C)c2=O)c1`: the inhibition in test [1] (filed as antagonist) is 43.8%.

For `Cc1ccccc1-n1nc(C(=O)Nc2cccc(C(=O)N(C)C)c2O)n(C)c1=O`, the inhibition in test [1] (filed as antagonist) was determined as 43.8%.

In the case of `CNC(=O)c1cc(Oc2ccc(NC(=O)Nc3ccc(Cl)c(C(F)(F)F)c3)cc2)ccn1` [SORAFENIB], the pIC50 in the test on MDA-MB-231 [7] is 5.07.

On to `O=C(Nc1ccc([N+](=O)[O-])cc1O)Nc1ccccc1Br`, for which the Activity worked out at 52.3% with MDA-MB-231 [2], 44% in the test on MDA-MB-231 [3] and 55.2% in the test on HUVEC [4]. For the same compound, the inhibition entry in the test with MDA-MB-231 [10], with MDA-MB-231 [11], with MDA-MB-231 [12] and in the test with MDA-MB-231 [13] was “Active” each time. Further, in the test with HUVEC [14], the outcome was inactive. Further, in the test on MDA-MB-231 [15], the result was Active.

On to `Cc1ccc(-n2nc(C(=O)Nc3cccc(C(=O)N(C)C)c3O)n(C)c2=O)cc1`, for which the inhibition in test [1] was determined as 24.3%.

On to `Cc1cccc(-n2nc(C(=O)Nc3cccc(C(=O)N(C)C)c3O)c(C)cc2=O)c1`, for which the inhibition in [1] worked out at 11.2%.

For the compound `Cc1cc(=O)n(-c2ccc(Cl)c(Cl)c2)nc1C(=O)Nc1cccc(C(=O)N(C)C)c1O`, in test [1], the inhibition amounted to 10.9%.
